Source: patent US20230322785A1, “ADENOSINE A2A AND A2B RECEPTOR DUAL ANTAGONISTS FOR IMMUNO-ONCOLOGY” (Merck Sharp & Dohme LLC, priority 2020, published 2023)

What follows are compounds tested against T1, human A2A adenosine receptor (Homo sapiens, UniProt P29274) (assay: A2A binding affinity, Method (B): scintillation proximity assay (SPA) with [3H]SCH58261). Settings: membranes of HEK293 or CHO cells expressing the human receptor.
T1 construct: expressed in transfected cells; host or cells: HEK293 or CHO cells
T1 sequence (P29274 whole entry): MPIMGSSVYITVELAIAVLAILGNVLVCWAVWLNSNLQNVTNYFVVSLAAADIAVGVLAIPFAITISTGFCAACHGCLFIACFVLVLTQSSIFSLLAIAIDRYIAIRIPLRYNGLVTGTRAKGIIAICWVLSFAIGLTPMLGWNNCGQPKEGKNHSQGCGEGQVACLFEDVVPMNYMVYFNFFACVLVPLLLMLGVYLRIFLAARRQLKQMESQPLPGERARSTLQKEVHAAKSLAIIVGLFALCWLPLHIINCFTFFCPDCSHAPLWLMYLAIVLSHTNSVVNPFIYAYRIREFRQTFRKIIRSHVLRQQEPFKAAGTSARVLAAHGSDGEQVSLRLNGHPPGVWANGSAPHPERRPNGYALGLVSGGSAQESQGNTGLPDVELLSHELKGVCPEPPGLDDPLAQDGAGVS
Excerpt: Method (A) describes the procedure used to measure A2A binding affinity using radioligand binding. Method (B) describes the procedure used to measure A2A binding affinity using SPA technology. The method used to measure A2B binding affinity is also described below. The method used to determine the A2A IC50 value reported for each compound in the table is indicated next to the reported value. The A2B IC50 value measured using the A2B binding affinity assay is shown in the table next to the compound under the corresponding A2A value.
The A2A receptor affinity binding assay measured the amount of binding of a tritiated ligand with high affinity for the A2A adenosine receptor to membranes made from HEK293 or CHO cells recombinantly expressing the human A2A adenosine receptor, in the presence of varying concentrations of a compound of the invention. The data were generated using either filtration binding or a homogenous scintillation proximity assay (SPA).
Method (B): Measurement of A2A Binding Affinity Using SPA
Binding affinity using SPA was conducted as follows. Test compounds (50 nL) were dispensed into individual wells of a 384-well OptiPlate™ well (Perkin Elmer) by Echo® acoustic liquid transfer (Labcyte). 20 µL of 1.25 nM [^3H] SCH58261 ((7-(2-phenylethyl)-5-amino-2-(2-furyl)-pyrazolo-[4,3-e]-1,2,4-triazolo[1,5-c]pyrimidine)) in DPBS assay buffer (Dulbecco’s phosphate buffered saline without calcium and magnesium, ThermoFisher Scientific, Cat. No. A1285601) supplemented with 10 mM MgCl2 was added. A2A receptor-expressing membranes were incubated with 20 µg/mL adenosine deaminase (Roche, Cat. No. 10 102 105 001) for 15 min at room temperature. The receptor-expressing membranes were then combined with wheat germ agglutinin-coated yttrium silicate SPA beads (GE Healthcare, Cat. No. RPNQ0023) in a ratio of […] (w/w) and incubated for 30 min at room temperature. 30 µL of the membrane/bead mixture (0.25 µg and 25 µg per well respectively) were added to the 384-well OptiPlate™ well. To define total and non-specific binding, wells containing 1% DMSO or 1 µM CGS 15943 (Tocris Bioscience, Cat. No. 1699) respectively were also included in the experiment. The plate was incubated for 1 h at room temperature with agitation. The assay plate was then incubated for an h to allow the beads to settle before data were collected using a TopCount® (Perkin Elmer) scintillation counter. After normalization to total and non-specific binding, the percent effect at each compound concentration was calculated. The plot of percent effect versus the log of compound concentration was analyzed electronically using a 4-parameter logistic fit based on the Levenberg-Marquardt algorithm to generate IC50 values.

Structure (SMILES)	IC50 [nM]
COc1cccc2c1nc(N)n1nc(CNC(=O)CCc3ccc(C(F)(F)F)cc3)nc21 [Example 2.3]	4.5
COc1cccc2c1nc(N)n1nc(CNC(C)c3ncc(-c4ccc(F)cc4)o3)nc21 (single isomer, unassigned) [Example 10.15, (S or R)-2-(((1-(5-(4-fluorophenyl)oxazol-2-yl)ethyl)amino)methyl)-7-methoxy-[1,2,4]triazolo[1,5-c]quinazolin-5-amine]	44.3
COc1cccc2c1nc(N)n1nc(CN(Cc3ccc(C(F)(F)F)cc3)C3CC3)nc21 [Example 8.9, 2-((cyclopropyl(4-(trifluoromethyl)benzyl)amino)methyl)-7-methoxy-[1,2,4]triazolo[1,5-c]quinazolin-5-amine]	2.5
COc1cccc2c1nc(N)n1nc(CNC(=O)CCc3ccccc3)nc21 [Example 2.2, N-((5-amino-7-methoxy-[1,2,4]triazolo[1,5-c]quinazolin-2-yl)methyl)-3-phenylpropanamide]	12.7
COc1cccc2c1nc(N)n1nc(CC(=O)NCc3cccnc3)nc21 [Example 4.3, 2-(5-amino-7-methoxy-[1,2,4]triazolo[1,5-c]quinazolin-2-yl)-N-(pyridin-3-ylmethyl)acetamide]	44.3
COc1cccc2c1nc(N)n1nc(CNCc3ccc(Br)cc3)nc21 [Example 7.9, 2-(((4-bromobenzyl)amino)methyl)-7-methoxy-[1,2,4]triazolo[1,5-c]quinazolin-5-amine]	5.4
COc1cccc2c1nc(N)n1nc(CN(C)c3cccnc3Br)nc21 [Example 10.3, 2-(((2-bromopyridin-3-yl)(methyl)amino)methyl)-7-methoxy-[1,2,4]triazolo[1,5-c]quinazolin-5-amine]	41.6
Nc1nc2c(F)cc(F)cc2c2nc(CCNCc3ccc(C(F)(F)F)cc3)nn12 [Example 10.2, 7,9-difluoro-2-(2-((4-(trifluoromethyl)benzyl)amino)ethyl)-[1,2,4]triazolo[1,5-c]quinazolin-5-amine]	110
COc1cccc2c1nc(N)n1nc(CCCNCc3ccc(C(F)(F)F)cc3)nc21 [Example 10.6, 7-methoxy-2-(3-((4-(trifluoromethyl)benzyl)amino)propyl)-[1,2,4]triazolo[1,5-c]quinazolin-5-amine]	8.7
COc1cccc2c1nc(N)n1nc(CN(CCC(F)(F)F)CC3CCN(c4ncc(F)cn4)CC3)nc21 [Example 14.4, 2-((((1-(5-fluoropyrimidin-2-yl)piperidin-4-yl)methyl)(3,3,3-trifluoropropyl)amino)methyl)-7-methoxy-[1,2,4]triazolo[1,5-c]quinazolin-5-amine]	38.2
COc1cccc2c1nc(N)n1nc(CN(CC(C)O)CC(C)O)nc21 (stereo not shown) [Example 10.13, 1,1-(((5-amino-7-methoxy-[1,2,4]triazolo[1,5-c]quinazolin-2-yl)methyl)azanediyl)bis(propan-2-ol)]	32.2
CCN(CC)Cc1nc2c3cccc(OC)c3nc(N)n2n1 [Example 5.3, 2-((diethylamino)methyl)-7-methoxy-[1,2,4]triazolo[1,5-c]quinazolin-5-amine]	24.4
COc1cccc2c1nc(N)n1nc(CNCC3(c4cccc(F)c4)CCOCC3)nc21 [Example 10.14, 2-((((4-(3-fluorophenyl)tetrahydro-2H-pyran-4-yl)methyl)amino)methyl)-7-methoxy-[1,2,4]triazolo[1,5-c]quinazolin-5-amine]	6.4
COc1cccc2c1nc(N)n1nc(CNC(=O)OCc3ccccc3)nc21 [Example 6.1, benzyl ((5-amino-7-methoxy-[1,2,4]triazolo[1,5-c]quinazolin-2-yl)methyl)carbamate]	5.9

Other lines, results leading:

IC50 [nM]	Structure (SMILES)
24.1	COc1cccc2c1nc(N)n1nc(CN(Cc3ccc(C(F)(F)F)nc3)CC3CC3)nc21 [Example 16.8, 2-(((cyclopropylmethyl)((6-(trifluoromethyl)pyridin-3-yl)methyl)amino)methyl)-7-methoxy-[1,2,4]triazolo[1,5-c]quinazolin-5-amine]
3.5	COc1cccc(CN(Cc2nc3c4cccc(OC)c4nc(N)n3n2)CC2CC2)c1 [Example 16.15, 2-(((cyclopropylmethyl)(3-methoxybenzyl)amino)methyl)-7-methoxy-[1,2,4]triazolo[1,5-c]quinazolin-5-amine]
13.5	COc1cccc2c1nc(N)n1nc(CN(Cc3ccc(OC(C)C)nc3)CC3CC3)nc21 [Example 16.7, 2-(((cyclopropylmethyl)((6-isopropoxypyridin-3-yl)methyl)amino)methyl)-7-methoxy-[1,2,4]triazolo[1,5-c]quinazolin-5-amine]
3.2	CCN(Cc1ccc(C(F)(F)F)cc1)Cc1nc2c3cccc(OC)c3nc(N)n2n1 [Example 15.1, 2-((ethyl(4-(trifluoromethyl)benzyl)amino)methyl)-7-methoxy-[1,2,4]triazolo[1,5-c]quinazolin-5-amine]
15.9	COc1cccc2c1nc(N)n1nc(CCN[C@H](C)c3ccc(C(F)(F)F)cc3)nc21 [Example 22.4, (R)-7-methoxy-2-(2-((1-(4-(trifluoromethyl)phenyl)ethyl)amino)ethyl)-[1,2,4]triazolo[1,5-c]quinazolin-5-amine]
4.2	COc1cccc2c1nc(N)n1nc(CN(Cc3ccc(C(F)(F)F)cc3)CC(C)C)nc21 [Example 15.4, 2-((isobutyl(4-(trifluoromethyl)benzyl)amino)methyl)-7-methoxy-[1,2,4]triazolo[1,5-c]quinazolin-5-amine]
4.1	COc1cccc2c1nc(N)n1nc(CCN(C)Cc3ccc(C(F)(F)F)cc3)nc21 [Example 22.5, 7-methoxy-2-(2-(methyl(4-(trifluoromethyl)benzyl)amino)ethyl)-[1,2,4]triazolo[1,5-c]quinazolin-5-amine]
50.4	COc1cccc2c1nc(N)n1nc(CN(Cc3ccc(OC(F)(F)F)cc3)S(=O)(=O)C(F)(F)F)nc21 [Example 19.4, N-((5-amino-7-methoxy-[1,2,4]triazolo[1,5-c]quinazolin-2-yl)methyl)-1,1,1-trifluoro-N-(4-(trifluoromethoxy)benzyl)methanesulfonamide]
3.1	C=CCN(Cc1ccc(OC(F)(F)F)cc1)Cc1nc2c3cccc(OC)c3nc(N)n2n1 [Entry 21.2]
3.2	CCN(Cc1ccc(OC(F)(F)F)cc1)Cc1nc2c3cccc(OC)c3nc(N)n2n1 [Example 15.8, 2-((ethyl(4-(trifluoromethoxy)benzyl)amino)methyl)-7-methoxy-[1,2,4]triazolo[1,5-c]quinazolin-5-amine]
2.5	COc1cccc2c1nc(N)n1nc(CN(CC(F)F)CC3CC3)nc21 [Example 17.1, 2-(((cyclopropylmethyl)(2,2-difluoroethyl)amino)methyl)-7-methoxy-[1,2,4]triazolo[1,5-c]quinazolin-5-amine]
9.7	COc1cccc2c1nc(N)n1nc(CCNCc3ccccc3C(F)(F)F)nc21 [Example 22.6, 7-methoxy-2-(2-((2-(trifluoromethyl)benzyl)amino)ethyl)-[1,2,4]triazolo[1,5-c]quinazolin-5-amine]
13	CCOC(=O)CN(Cc1nc2c3cccc(OC)c3nc(N)n2n1)CC1CC1 [Entry 17.2]
101	COc1cccc2c1nc(N)n1nc(CN(CCC(C)C)Cc3ccc(C(F)(F)F)cc3)nc21 [Example 15.5, 2-((isopentyl(4-(trifluoromethyl)benzyl)amino)methyl)-7-methoxy-[1,2,4]triazolo[1,5-c]quinazolin-5-amine]
12.8	COc1cccc2c1nc(N)n1nc(CN(Cc3ccccn3)CC3CC3)nc21 [Example 16.1, 2-(((cyclopropylmethyl)(pyridin-2-ylmethyl)amino)methyl)-7-methoxy-[1,2,4]triazolo[1,5-c]quinazolin-5-amine]
5.3	COc1cccc2c1nc(N)n1nc(CN(Cc3cccnc3)CC3CC3)nc21 [Example 16.2, 2-(((cyclopropylmethyl)(pyridin-3-ylmethyl)amino)methyl)-7-methoxy-[1,2,4]triazolo[1,5-c]quinazolin-5-amine]
4.8	COc1cccc2c1nc(N)n1nc(CN(Cc3ccc(F)c(F)c3F)CC3CC3)nc21 [Example 16.17, 2-(((cyclopropylmethyl)(2,3,4-trifluorobenzyl)amino)methyl)-7-methoxy-[1,2,4]triazolo[1,5-c]quinazolin-5-amine]
